Like-named read-outs stand apart in the source and are kept apart here.
How the values were obtained:
rabbit hearts = settings: cited from earlier work
[1] = Hemodynamics (heart rate, mean arterial pressure) during ischemia/reperfusion
chick cardiomyocytes = settings: cited from earlier work
A1 receptor subtype = molecular target: T1, A1 receptor subtype (Homo sapiens, UniProt P30542); settings: cited from earlier work
T1 sequence (P30542 1-326): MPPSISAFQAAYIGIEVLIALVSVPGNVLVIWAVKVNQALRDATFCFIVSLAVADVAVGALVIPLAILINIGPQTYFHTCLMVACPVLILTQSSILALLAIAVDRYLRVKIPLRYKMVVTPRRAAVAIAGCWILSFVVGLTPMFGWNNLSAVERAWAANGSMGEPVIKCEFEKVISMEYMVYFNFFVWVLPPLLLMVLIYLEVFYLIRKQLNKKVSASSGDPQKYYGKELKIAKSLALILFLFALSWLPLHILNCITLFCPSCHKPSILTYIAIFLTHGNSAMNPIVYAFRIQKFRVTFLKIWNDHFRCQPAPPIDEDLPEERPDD

in situ rabbit hearts = experiment: Infarct size after 30 min regional ischemia/3 h reperfusion, in situ rabbit hearts; type: in vivo, New Zealand White rabbits; settings: for Infarct size, percentage of the risk zone: AMP 579 30 μg/kg iv bolus + 3 μg/kg/min; for Protection against infarction: Adenosine 150, 300 or 400 μg/kg/min; for Infarct size (% of risk zone): starting 10 minutes before reperfusion
Description: Body temperature was maintained at 38-39° C. […] Ischemia was confirmed by appearance of cyanosis.
After 3 h of reperfusion, the rabbit was given an overdose of pentobarbital and the heart was quickly removed from the chest, mounted on a Langendorff apparatus, and perfused with saline to wash out blood. Then the coronary artery was reoccluded, and 5 ml of 0.1% zinc/cadmium sulfide particles (1-10 μm diameter, Duke Scientific Corp, Palo Alto, Calif.) were infused into the perfusate to demarcate the risk zone as the area of tissue without fluorescence. The heart was weighed, frozen, and cut into 2.5-mm-thick slices. The slices were incubated in 1% triphenyltetrazolium chloride (TTC) in sodium phosphate buffer at 37° C. for 20 min. The slices were immersed in 10% formalin to enhance the contrast between stained (viable) and unstained (necrotic) tissue and then squeezed between glass plates spaced exactly 2 mm apart. The myocardium at risk was identified by illuminating the slices with ultraviolet light. The infarcted and risk zone areas were traced on a clear acetate sheet and quantified with planimetry by an investigator blinded to the treatment. The areas were converted into volumes by multiplying the areas by slice thickness. Infarct size is expressed as a percentage of the risk zone.
The control group received no drug treatment.

rabbit heart = settings: cited from earlier work
A2a receptor subtype = A2a receptor subtype (Homo sapiens, UniProt P29274); settings: cited from earlier work
Chain of A2a receptor subtype (P29274 whole entry, the tested form may be a part): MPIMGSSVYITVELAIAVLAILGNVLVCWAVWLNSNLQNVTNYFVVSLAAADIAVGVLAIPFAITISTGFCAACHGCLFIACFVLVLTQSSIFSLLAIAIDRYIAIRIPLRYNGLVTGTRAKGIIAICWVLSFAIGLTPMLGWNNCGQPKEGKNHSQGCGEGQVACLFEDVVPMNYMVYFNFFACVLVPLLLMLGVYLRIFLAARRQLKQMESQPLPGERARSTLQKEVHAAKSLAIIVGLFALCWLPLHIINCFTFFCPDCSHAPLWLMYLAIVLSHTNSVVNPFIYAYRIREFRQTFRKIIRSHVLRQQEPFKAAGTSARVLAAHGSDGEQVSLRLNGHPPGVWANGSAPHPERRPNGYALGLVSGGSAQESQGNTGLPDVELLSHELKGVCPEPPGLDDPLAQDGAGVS

[2] = AMP (30 min): 30 μg/kg iv bolus + 3 μg/kg/min, started 10 min before reperfusion, 30 min, Baseline
[3] = AMP (30 min): started 10 min before reperfusion, 30 min, Ischemia (end of 30 min)
[4] = AMP (30 min): started 10 min before reperfusion, 30 min, Rep 30′
[5] = AMP (30 min): started 10 min before reperfusion, 30 min, Rep 90′
[6] = AMP (30 min): started 10 min before reperfusion, 30 min, Rep 180′
[7] = AMP (40 min): 30 μg/kg iv bolus + 3 μg/kg/min, started 10 min before reperfusion, 40 min, Baseline
[8] = AMP (40 min): started 10 min before reperfusion, 40 min, Ischemia (end of 30 min)
[9] = AMP (40 min): started 10 min before reperfusion, 40 min, Rep 30′
[10] = AMP (40 min): started 10 min before reperfusion, 40 min, Rep 90′
[11] = AMP (40 min): started 10 min before reperfusion, 40 min, Rep 180′
[12] = AMP (70 min, late): 30 μg/kg iv bolus + 3 μg/kg/min, started 10 min after reperfusion, 70 min, Baseline
[13] = AMP (70 min, late): started 10 min after reperfusion, 70 min, Ischemia (end of 30 min)
[14] = AMP (70 min, late): started 10 min after reperfusion, 70 min, Rep 30′
[15] = AMP (70 min, late): started 10 min after reperfusion, 70 min, Rep 90′
[16] = AMP (70 min, late): started 10 min after reperfusion, 70 min, Rep 180′
[17] = AMP (70 min, onset): 30 μg/kg iv bolus + 3 μg/kg/min, started at onset of reperfusion, 70 min, Baseline
[18] = AMP (70 min, onset): started at onset of reperfusion, 70 min, Ischemia (end of 30 min)
[19] = AMP (70 min, onset): started at onset of reperfusion, 70 min, Rep 30′
[20] = AMP (70 min, onset): started at onset of reperfusion, 70 min, Rep 90′
[21] = AMP (70 min, onset): started at onset of reperfusion, 70 min, Rep 180′
[22] = Adenosine 150 μg/kg/min iv, 70 min starting 10 min before reperfusion
[23] = Adenosine 300 μg/kg/min iv, 70 min starting 10 min before reperfusion
[24] = Adenosine 400 μg/kg/min iv, 70 min starting 10 min before reperfusion

SMILES: CCNC(=O)[C@H]1CC(n2cnc3c(N[C@H](CC)Cc4sccc4Cl)ccnc32)[C@H](O)[C@@H]1O (relative stereo) [AMP 579, [1S-[1α,2β,3β,4α(S*)]]-4-[7-[[3-chloro-2-thienyl)methyl]propyl]amino]-3H-imidazo[4,5-b]pyridin-3-yl]-N-ethyl-2,3-dihydroxycyclopentanecarboxamide]
- Protection against infarction (dose required) (rabbit hearts; 3 μg/kg/min): protective
- Infarct size, percentage of the risk zone (rabbit hearts; 70-min infusion starting 10 min prior to reperfusion, previous study (Xu et al.)): 12.3±1.0%
- HR [1, 2]: 271 ± 3 beats/min
- MAP [1, 2]: 91.8 ± 2.8 mmHg
- HR [1, 3]: 247 ± 5 beats/min
- MAP [1, 3]: 73.7 ± 3.9 mmHg
- HR [1, 4]: 241 ± 7 beats/min
- MAP [1, 4]: 74.8 ± 5.1 mmHg
- HR [1, 5]: 256 ± 11 beats/min
- MAP [1, 5]: 77.7 ± 5.7 mmHg
- HR [1, 6]: 265 ± 6 beats/min
- MAP [1, 6]: 77.9 ± 5.2 mmHg
- HR [1, 7]: 271 ± 11 beats/min
- MAP [1, 7]: 99.3 ± 2.4 mmHg
- HR [1, 8]: 268 ± 7 beats/min
- MAP [1, 8]: 76.8 ± 6.6 mmHg
- HR [1, 9]: 250 ± 14 beats/min
- MAP [1, 9]: 70.4 ± 8.1 mmHg
- HR [1, 10]: 268 ± 13 beats/min
- MAP [1, 10]: 83.5 ± 5.0 mmHg
- HR [1, 11]: 268 ± 10 beats/min
- MAP [1, 11]: 81.8 ± 4.5 mmHg
- HR [1, 12]: 285 ± 3 beats/min
- MAP [1, 12]: 96.9 ± 2.9 mmHg
- HR [1, 13]: 281 ± 1 beats/min
- MAP [1, 13]: 84.6 ± 4.5 mmHg
- HR [1, 14]: 243 ± 8 beats/min
- MAP [1, 14]: 57.4 ± 5.6 mmHg
- HR [1, 15]: 240 ± 6 beats/min
- MAP [1, 15]: 69.0 ± 4.9 mmHg
- HR [1, 16]: 259 ± 10 beats/min
- MAP [1, 16]: 68.1 ± 3.6 mmHg
- HR [1, 17]: 262 ± 6 beats/min
- MAP [1, 17]: 98.6 ± 3.2 mmHg
- HR [1, 18]: 270 ± 9 beats/min
- MAP [1, 18]: 89.0 ± 3.2 mmHg
- HR [1, 19]: 233 ± 9 beats/min
- MAP [1, 19]: 55.6 ± 3.9 mmHg
- HR [1, 20]: 235 ± 16 beats/min
- MAP [1, 20]: 70.8 ± 4.5 mmHg
- HR [1, 21]: 264 ± 10 beats/min
- MAP [1, 21]: 79.6 ± 3.9 mmHg
- Hypotensive effect ([1]; infusion commenced before the onset of reperfusion (AMP 30 min and AMP 40 min groups)): additional mild hypotensive effect
- Burst of free radicals at reperfusion (chick cardiomyocytes; 1 μM): virtually eliminated it
- Ki (A1 receptor subtype): 5 nM
- Infarct size, percentage of the risk zone (in situ rabbit hearts; 70 min, started 10 min after reperfusion): 27.6±7.2%
- Infarct size, percentage of the risk zone (in situ rabbit hearts; 70 min, started at onset of reperfusion, p<0.05 vs. control): 13.0±1.9%
- Infarct size, percentage of the risk zone (in situ rabbit hearts; started 10 min before reperfusion, 30 min infusion): 30.1±1.4%
- Infarct size, percentage of the risk zone (in situ rabbit hearts; started 10 min before reperfusion, 40 min infusion): 24.8±5.9%
- Infarct size (in situ rabbit hearts; AMP (30 min): 30 μg/kg iv bolus + 3 μg/kg/min, started 10 min before reperfusion, 30 min): 0.27 ± 0.05 cm^3
- Infarct size (in situ rabbit hearts; AMP (40 min): 30 μg/kg iv bolus + 3 μg/kg/min, started 10 min before reperfusion, 40 min): 0.27 ± 0.07 cm^3
- Infarct size (in situ rabbit hearts; AMP (70 min, late): 30 μg/kg iv bolus + 3 μg/kg/min, started 10 min after reperfusion, 70 min): 0.28 ± 0.07 cm^3
- Infarct size (in situ rabbit hearts; AMP (70 min, onset): 30 μg/kg iv bolus + 3 μg/kg/min, started at onset of reperfusion, 70 min, * p<0.05 vs. control): 0.14 ± 0.03* cm^3
- Onset of contracture that accompanies reperfusion (rabbit heart): greatly attenuates the onset of contracture
- Ki (A2a receptor subtype): 56 nM

SMILES: Nc1ncnc2c1ncn2[C@@H]1O[C@H](CO)[C@@H](O)[C@H]1O [Adenosine]
- Burst of free radicals at reperfusion (chick cardiomyocytes; 100 μM (a receptor saturating concentration)): failed to block the burst of free radicals at reperfusion
- % infarction of the risk zone (in situ rabbit hearts; [22]): 32.6 ± 5.8%
- Infarct size (in situ rabbit hearts; [22]): 0.36 ± 0.09 cm^3
- % infarction of the risk zone (in situ rabbit hearts; [23]): 34.4 ± 9.5%
- Infarct size (in situ rabbit hearts; [23]): 0.36 ± 0.11 cm^3
- % infarction of the risk zone (in situ rabbit hearts; [24]): 29.2 ± 8.0%
- Infarct size (in situ rabbit hearts; [24]): 0.30 ± 0.08 cm^3
- Protection against infarction (in situ rabbit hearts; 70 min starting 10 min before reperfusion): No protection was seen
- Protection against infarction (in situ rabbit hearts; 70 min starting 10 min before reperfusion, listed as adenosine): none of the doses was protective
- Infarct size (% of risk zone) (in situ rabbit hearts; Infusion rate 300 ug/kg/min): 34.4 ± 9.5%
- Infarct size (% of risk zone) (in situ rabbit hearts; Infusion rate 400 ug/kg/min): 29.2 ± 8.0%
